Laboratory results published in paper PMC8838850, “Synthesis, Antimicrobial, Anti-Virulence and Anticancer Evaluation of New 5(4H)-Oxazolone-Based Sulfonamides” (Molecules, 2022).
In brackets after ≈: the same amount, converted by molar mass.

Assays:
S. aureus [1] = assay: Assay of hemolytic activity; assay type: cell-based, Staphylococcus aureus; conditions: sub-MIC
Procedure: (§1) The anti-virulence effects of compounds 5, 7 and 10 on hemolytic activity of tested P. aeruginosa and S. aureus strains were assessed as described previously. Optically adjusted bacterial cultures treated or untreated with tested compounds at sub-MIC were centrifuged, and 0.5 mL of supernatants were mixed with fresh 0.8 mL 2% erythrocyte (obtained from experimental animals) suspension in saline, and incubated for 2 h at 37 °C. A complete hemolysis positive control was prepared by addition of sodium dodecyl sulphate (SDS) to erythrocyte suspension, and negative control was prepared by incubation of erythrocytes in LB broth under the same conditions. After centrifugation, the absorbances of the lysed erythrocytes were measured at 540 nm by Biotek spectrofluorometer (Biotek, Winooski, VT, USA). The experiment was performed in triplicate, and the hemolysis of tested compound treated cultures were expressed as mean ± standard error of percentages compared with those obtained from untreated control cultures using the formula: (absorbance in presence or absence of tested compounds—absorbance of negative control)/(absorbance of positive control—absorbance of negative control).

[2] = test system: Pseudomonas aeruginosae ATCC 47085; assay: MIC by agar dilution; assay type: cell-based, Pseudomonas aeruginosa; conditions: ATCC47085, 37 °C, 20 h, read-out: Minimum inhibitory concentration (MIC)
Procedure: (§2) The MICs of the synthesized compound were determined by agar dilution method according to the Clinical Laboratory and Standards Institute Guidelines (CLSI, 2015). Briefly, the tested strains were incubated overnight in tryptic soy broth (TSB) (Oxoid, United Kingdom) and then diluted in Muller–Hinton (MH) broth (Oxoid, United Kingdom) to turbidity approximating to the equivalent of 0.5 McFarland standard. The suspensions were further diluted with sterile saline (1:10) and standardized inoculums (approximately 10^4 CFU per spot) were spotted on the surfaces of MH agar (Oxoid, United Kingdom) plates containing different concentrations of tested compounds and a control plate. The MICs were the lowest concentrations that inhibit growth on the plates after incubation at 37 °C for 20 h.

Panc-1 = assay: Caspase-Glo 3/7 apoptosis assay; assay type: cell-based, human; conditions: ½ IC50, IC50 or 2 ×IC50 for 6 h, vs untreated controls
Procedure: Caspases play critical roles in apoptosis. The apoptotic effects of selected compounds 5, 7 and 10 on pancreatic cell line Panc-1 were tested by quantification of caspase 3/7 using Caspase-Glo 3/7 assay kit (Promega, Fitchburg, MA, USA) as previously described. Briefly, cells were treated with or without compounds 5, 7 and 10 (½ IC50, IC50, or 2 ×IC50) for 6 h. The prepared reagent Caspase-Glo 3/7 was added in equal volumes to cells, gently mixed, and incubated for 60 min at room temperature. The luminescence was measured, and the activity of caspase was presented as a percentage change from the untreated control.

P. aeruginosa [3] = assay: Assay of protease production (casein substrate); assay type: cell-based, Pseudomonas aeruginosa; conditions: sub-MIC
Procedure: (§3) The effect of compounds 5, 7 and 10 on the production of protease was evaluated using casein substrate as described earlier. Briefly, overnight cultures of P. aeruginosa and S. aureus were cultivated in LB broth in the presence or absence of compounds 5, 7 and 10 at ½ MIC for 24 h at 37 °C. The supernatants were collected, mixed (1:1) with 0.05 M casein in phosphate buffer (2%) and NaOH (0.1 M) at pH 7.0, and incubated for 15 min at 37 °C. The reaction was stopped by adding 2 mL of 0.4 M trichloroacetic acid for 30 min at 25 °C. Any precipitates were removed, and the optical densities were detected at 660 nm. The assays were performed in triplicate and the obtained optical densities of tested strains treated with compounds 5, 7 and 10 were expressed as mean ± standard error of percentage change from untreated tested strains control (positive control) and LB (negative control). The protease inhibition percentages were calculated: (O.D control—O.D tested compounds)/O.D control.

P. aeruginosa [4] = assay: Assay of hemolytic activity; assay type: cell-based, Pseudomonas aeruginosa; conditions: sub-MIC
Procedure: as §1

S. aureus [5] = assay: Assay of protease production (casein substrate); assay type: cell-based, Staphylococcus aureus; conditions: sub-MIC
Procedure: as §3

S. aureus ATCC 6538 = assay: Biofilm formation assay (crystal violet, light microscopy); assay type: cell-based, Staphylococcus aureus; conditions: sub-MIC (½ MIC), crystal violet method
Procedure: Bacterial virulence is regulated via a quorum sensing (QS) system in an inducer/receptor manner. Diminishing bacterial virulence is an advantageous strategy to decrease the development of bacterial resistance. In this direction, anti-virulence and anti-QS activities have been explored in several studies as reviewed. The ability of P. aeruginosa or S. aureus to form biofilms was assayed in the absence or presence of tested compounds at sub-MIC. […] The experiment was conducted in triplicate and a one-way ANOVA test was employed to test the statistical significance using Graphpad Prism 8 software. The results were significant statistically where p values < 0.05. Moreover, microscopic visualization of biofilm under the effect of tested compounds was also performed by light microscopy. Representative images for the inhibitory effects on S. aureus and P. aeruginosa biofilm formation are shown (Figure 3C,D). The microscopic images show a marked reduction in both the thickness of and surface area covered by the biofilms in presence of the tested compound.
In order to evaluate the ability of the tested compounds to inhibit the biofilm formation, a strong biofilm forming P. aeruginosa ATCC 47,085 [47, 66] and S. aureus ATCC 6538 [67] strains were used. As described earlier, suspensions of tested strains were prepared from overnight cultures in TSB and their optical densities were adjusted to OD600 of 0.4 (1×10^8 CFU/mL). Aliquots of 10 μL of the suspensions were added to 1 mL amounts of fresh TSB with or without sub-MICs of tested compounds. […] The non-adherent cells were removed, the wells were washed with sterile PBS, and left to dry. The attached biofilm forming cells were fixed with methanol for 25 min and stained with 1% crystal violet for 30 min. The excess dye was washed out and the crystal violet staining adhered biofilm forming cells were eluted by glacial acetic acid (33%). The experiment was conducted in triplicate and the absorbance was measured at 590 nm. The absorbances of tested strains treated with different compounds were expressed as mean ± standard error of percentage change from untreated tested strains control. The percentages of biofilm inhibition were calculated employing the following formula: (absorbance of control—absorbance in presence of tested compounds)/absorbance of control.

[6] = test system: Klebsiella pneumoniae ATCC 27736; assay: MIC by agar dilution; assay type: cell-based; conditions: ATCC27736, 37 °C, 20 h, read-out: Minimum inhibitory concentration (MIC)
Procedure: as §2

[7] = test system: Escherichia coli ATCC 10536; assay: MIC by agar dilution; assay type: cell-based; conditions: ATCC10536, 37 °C, 20 h, read-out: Minimum inhibitory concentration (MIC)
Procedure: as §2

[8] = test system: Staphylococcus aureus ATCC 6538; assay: MIC by agar dilution; assay type: cell-based; conditions: ATCC6538, 37 °C, 20 h, read-out: Minimum inhibitory concentration (MIC)
Procedure: as §2

[9] = test system: Micrococcus spp. ATCC 10240; assay: MIC by agar dilution; assay type: cell-based; conditions: ATCC10240, 37 °C, 20 h, read-out: Minimum inhibitory concentration (MIC)
Procedure: as §2

Compound	Hemolytic activity (S. aureus [1])	MIC [2]	Apoptotic effect, caspase 3/7 levels (Panc-1)	Production of protease (P. aeruginosa [3])	Hemolytic activity (P. aeruginosa [4])	Production of protease (S. aureus [5])	Inhibition of biofilm formation (S. aureus ATCC 6538)	MIC [6]	MIC [7]	MIC [8]	MIC [9]
COc1ccc(/C=C2/N=C(c3ccccc3NS(=O)(=O)c3ccc(C)cc3)OC2=O)cc1 [Compound 9b, (E)-N-(2-(4-(4-Methoxybenzylidene)-5-oxo-4,5-dihydrooxazol-2-yl)phenyl)-4-methylbenzenesulfonamide]	significantly diminished the hemolytic activity	4 µg/mL (≈ 8.92 µM)	triggered apoptosis through increasing the amounts of activated caspases 3/7	significantly reduced the production of protease	significantly diminished the hemolytic activity	significantly reduced the production of protease	highest abilities to inhibit biofilm formation	4 µg/mL (≈ 8.92 µM)	2 µg/mL (≈ 4.46 µM)	2 µg/mL (≈ 4.46 µM)	1 µg/mL (≈ 2.23 µM)
Cc1ccc(S(=O)(=O)Nc2ccccc2C2=N/C(=C/c3ccc([N+](=O)[O-])cc3)C(=O)O2)cc1 [Compound 9f, (E)-4-Methyl-N-(2-(4-(4-nitrobenzylidene)-5-oxo-4,5-dihydrooxazol-2-yl)phenyl)benzenesulfonamide]	significantly diminished the hemolytic activity	4 µg/mL (≈ 8.63 µM)	triggered apoptosis through increasing the amounts of activated caspases 3/7	significantly reduced the production of protease	significantly diminished the hemolytic activity	significantly reduced the production of protease	highest abilities to inhibit biofilm formation	2 µg/mL (≈ 4.32 µM)	4 µg/mL (≈ 8.63 µM)	2 µg/mL (≈ 4.32 µM)	2 µg/mL (≈ 4.32 µM)
Cc1ccc(S(=O)(=O)Nc2ccccc2C2=N/C(=C/c3ccccc3)C(=O)O2)cc1 [Compound 9a, (E)-N-(2-(4-Benzylidene-5-oxo-4,5-dihydrooxazol-2-yl)phenyl)-4-methylbenzenesulfonamide]	significantly diminished the hemolytic activity	8 µg/mL (≈ 19.1 µM)	triggered apoptosis through increasing the amounts of activated caspases 3/7	significantly reduced the production of protease	significantly diminished the hemolytic activity	significantly reduced the production of protease	highest abilities to inhibit biofilm formation	4 µg/mL (≈ 9.56 µM)	2 µg/mL (≈ 4.78 µM)	4 µg/mL (≈ 9.56 µM)	4 µg/mL (≈ 9.56 µM)
